Consider seven compounds from ChEMBL document CHEMBL1149667, “Synthesis of ferulic ester dimers, functionalisation and biological evaluation as potential antiatherogenic and antiplasmodial agents” (Bioorg Med Chem, 2007).

The subject of assay [1] is HMEC-1. Kind of assay: Effect on HMEC1 cells-mediated LDL oxidation at 10 uM after 6 hrs by TBARS assay. Type of assay: functional, Homo sapiens.
Assay [2] is described as follows: (§1) Cytoprotective effect on HMEC1 cells assessed as cell viability by MTT assay. The class given is functional, Homo sapiens, HMEC-1.
A short description of assay [3]: (§2) Cytoprotective effect on HMEC1 cells assessed as cell viability at 10 uM after 24 hrs by MTT assay. Type of assay: functional. The note with it: Homo sapiens, HMEC-1, 24 h, read-out: Activity.
Assay [4] deals with P388. In words: Cytotoxicity against mouse P388 cells after 72 hrs. The note with it: P388, 72 h. The class given is functional, cell-based.
For assay [5], the system named is Plasmodium falciparum. In words: Antiplasmodial activity against Plasmodium falciparum FCM29 at 10 ug/mL as [3H]hypoxanthine uptake. Type of assay: functional.
Assay [6] concerns Plasmodium falciparum. Kind of assay: Antiplasmodial activity against Plasmodium falciparum FCM29 by [3H]hypoxanthine uptake. Type of assay: functional, organism-based.
Assay [7] concerns P388. In words: Cytotoxicity against mouse P388 cells at 10 ug/mL after 72 hrs. The note with it: P388, 72 h. The class given is functional.
Assay [8] deals with HMEC-1. The description is as §1. Type of assay: functional. The note with it: Homo sapiens.
Assay [9] concerns HMEC-1. Described as §2. The following applies: Homo sapiens. Type of assay: functional.
Assay [10] concerns HMEC-1. In words: Effect on HMEC1 cells-mediated LDL oxidation at 100 uM after 6 hrs by TBARS assay. The note with it: Homo sapiens. The class given is functional, cell-based.

Active and inactive are the calls of the source. The calls are words filed in the database; no cut-off is given here.

Usually IC50 stands for the concentration that inhibits the measured activity by half. A higher IC50 goes with weaker potency. Usually inhibition stands for the relative decrease from the control value, in per cent.

`CC(C)(Sc1cc(C(C)(C)C)c(O)c(C(C)(C)C)c1)Sc1cc(C(C)(C)C)c(O)c(C(C)(C)C)c1` [PROBUCOL]: the Activity in assay [1] stood at 10%; in [2] it was 92%. For the same compound, the viability at 10 µM in assay [3] amounted to 55%.
The compound `CC[C@@]1(O)C(=O)OCc2c1cc1n(c2=O)Cc2cc3ccccc3nc2-1` [CAMPTOTHECIN] registered an IC50 in assay [4] of 32.1 nM.
With `COC(=O)/C=C/c1cc(OC)c2c(c1)C(COC(=O)c1cc(O)c(O)c(O)c1)C(c1ccc(O)c(OC)c1)O2` (stereo not drawn), the Activity in assay [1] is listed as 2.2%; in assay [2], 59.9%. Also, the viability at 10 µM in assay [3] is 40%. Also, the inhibition at 10 µg/mL in assay [5] worked out at 93.7%; in [7] it was 16.4%. In addition, in [6], the IC50 worked out at 798 nM.
For the compound `COC(=O)/C=C/c1ccc(O/C(=C\c2ccc(O)c(OC)c2)C(=O)OC)c(OC)c1`, the outcome in assay [1] (Homo sapiens) and in assay [8] was Active. Moreover, the viability at 10 µM in assay [3] was 40%. Besides, the inhibition at 10 µg/mL in [5] amounted to 23.8%; in assay [7], 0%.
As to `COC(=O)/C=C/c1cc(OC)c2c(c1)C(C(=O)OC)C(c1ccc(O)c(OC)c1)O2` (stereo not drawn), the outcome in [1] (Homo sapiens) and in assay [8] was Active. The viability at 10 µM in [3] came to 40%. The inhibition at 10 µg/mL in assay [5] came to 0%; in assay [7] it was 85.2%. This compound gave an IC50 in [4] of 772 nM.
In the case of VITAMIN E, the results for the Activity in assay [1] (Homo sapiens), in assay [8] and in [9] were 55%, 29% and 40%, respectively.
As for `COC(=O)/C=C/c1cc(OC)c2c(c1)C(CO)C(c1ccc(O)c(OC)c1)O2` (stereo not drawn), in assay [10], the result was Active. The viability at 10 µM in assay [3] amounted to 40%. Further, the inhibition at 10 µg/mL came to 25.7% in assay [5] and 8.63% in assay [7].
